Assay results taken from US8263598B2, “Substituted sulfonamide compounds” (Gruenenthal GmbH, priority 2008, dated 2012).

Assays:
[1] = biological target: T1, human B1R receptor (hB1R) (Homo sapiens, UniProt P46663); assay: FLIPR Ca2+ assay on human bradykinin 1 receptor (CHO K1 hB1R cells); type: cell-based; conditions: test substance 10 μM; CHO K1 cells with human B1R gene; agonist Lys-Des-Arg9-bradykinin 0.5 nM; compared to maximum achievable inhibition
T1 construct: host or cells: CHO K1 cells
T1 sequence (P46663 1-353): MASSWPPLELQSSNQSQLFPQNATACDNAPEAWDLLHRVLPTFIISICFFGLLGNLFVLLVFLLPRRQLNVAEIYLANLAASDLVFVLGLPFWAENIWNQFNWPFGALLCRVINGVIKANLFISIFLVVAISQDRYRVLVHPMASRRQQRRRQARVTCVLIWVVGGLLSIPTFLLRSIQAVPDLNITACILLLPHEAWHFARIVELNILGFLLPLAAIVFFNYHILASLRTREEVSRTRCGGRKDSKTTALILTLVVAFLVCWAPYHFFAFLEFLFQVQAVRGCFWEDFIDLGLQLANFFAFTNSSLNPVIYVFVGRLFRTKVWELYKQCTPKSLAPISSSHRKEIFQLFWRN
Summary of the method: (§1)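 Values are percent inhibition of agonist-evoked Ca²⁺ influx, measured by Fluo-4 fluorescence peak in FLIPR relative to maximum achievable inhibition. Compound at 10 μM was preincubated 10 min on B1R-transfected CHO K1 cells before challenge with 0.5 nM Lys-Des-Arg9-bradykinin (human) or 100 nM Des-Arg9-bradykinin (rat).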

[2] = biological target: T2, B1R receptor of rats (rB1R) (Rattus norvegicus, UniProt P97583); assay: FLIPR Ca2+ assay on rat bradykinin 1 receptor (CHO K1 rB1R cells); type: cell-based; conditions: test substance 10 μM; CHO K1 cells with B1R gene of rats; agonist Des-Arg9-bradykinin 100 nM; compared to maximum achievable inhibition
T2 construct: host or cells: CHO K1 cells
T2 sequence (P97583 1-337): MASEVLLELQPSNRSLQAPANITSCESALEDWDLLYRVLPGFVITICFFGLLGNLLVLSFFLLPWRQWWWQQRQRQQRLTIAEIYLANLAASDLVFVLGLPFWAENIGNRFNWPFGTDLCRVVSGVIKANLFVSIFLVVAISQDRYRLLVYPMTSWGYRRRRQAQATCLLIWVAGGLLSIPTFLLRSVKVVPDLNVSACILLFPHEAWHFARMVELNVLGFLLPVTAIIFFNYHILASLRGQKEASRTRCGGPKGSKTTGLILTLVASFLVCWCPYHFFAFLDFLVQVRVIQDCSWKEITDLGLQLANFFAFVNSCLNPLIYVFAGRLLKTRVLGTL
Summary of the method: as §1

| SMILES | inhibition at 10 µM [1] | inhibition at 10 µM [2] |
| --- | --- | --- |
| Cc1cc(C)c(S(=O)(=O)N(C)CCOCC(=O)N2CCn3cccc3C2C)c(C)c1 (centres unmarked) [Example 66, N,2,4,6-tetramethyl-N-(2-(2-(1-methyl-3,4-dihydropyrrolo[1,2-a]pyrazin-2(1H)-yl)-2-oxoethoxy)ethyl)benzenesulfonamide] | 87% | 92% |
| COc1cc(C)c(S(=O)(=O)N(C)CCOCC(=O)N2CCn3c(CN4CCN(C)CC4)ccc3C2)c(C)c1 [Example 9, 4-methoxy-N,2,6-trimethyl-N-(2-(2-(6-((4-methylpiperazin-1-yl)methyl)-3,4-dihydropyrrolo[1,2-a]pyrazin-2(1H)-yl)-2-oxoethoxy)ethyl)benzenesulfonamide] | 101% | 102% |
| COc1cc(C)c(S(=O)(=O)N(C)CCOCC(=O)N2CCn3cccc3C2c2ccc(Cl)nc2)c(C)c1C (centres unmarked) [Example 82, N-(2-(2-(1-(6-chloropyridin-3-yl)-3,4-dihydropyrrolo[1,2-a]pyrazin-2(1H)-yl)-2-oxoethoxy)ethyl)-4-methoxy-N,2,3,6-tetramethylbenzenesulfonamide] | 101% | 99% |
| CCCCC1c2ccc(CN(C)C)n2CCN1C(=O)COCCN(CC(C)C)S(=O)(=O)c1c(C)cc(OC)c(C)c1C (centres unmarked) [Example 97, N-(2-(2-(1-butyl-6-((dimethylamino)methyl)-3,4-dihydropyrrolo[1,2-a]pyrazin-2(1H)-yl)-2-oxoethoxy)ethyl)-N-isobutyl-4-methoxy-2,3,6-trimethylbenzene-sulfonamide] | 89% | 102% |
| COc1cc(C)c(S(=O)(=O)N(C)CCOCC(=O)N2CCn3ccnc3C2)c(C)c1 [Example 56, N-(2-(2-(5,6-dihydroimidazo[1,2-a]pyrazin-7(8H)-yl)-2-oxoethoxy)ethyl)-4-methoxy-N,2,6-trimethylbenzenesulfonamide] | 85% | 97% |
| COc1cc(C)c(S(=O)(=O)N(C)CCOCC(=O)N2CCn3cccc3C2c2cccs2)c(C)c1C (centres unmarked) [Example 88, 4-methoxy-N,2,3,6-tetramethyl-N-(2-(2-oxo-2-(1-(thiophen-2-yl)-3,4-dihydropyrrolo[1,2-a]pyrazin-2(1H)-yl)ethoxy)ethyl)benzenesulfonamide] | 101% | 98% |
| COc1c(C)cc(S(=O)(=O)N(C)CCOCC(=O)N2CCn3cccc3C2c2ccc(F)c(F)c2)c(C)c1C (centres unmarked) [Example 33, N-(2-(2-(1-(3,4-difluorophenyl)-3,4-dihydropyrrolo[1,2-a]pyrazin-2(1H)-yl)-2-oxoethoxy)ethyl)-4-methoxy-N,2,3,5-tetramethylbenzenesulfonamide] | 71% | 66% |
| COc1cc(C)c(S(=O)(=O)N(CCOCC(=O)N2CCn3cccc3C2C)Cc2ccccc2)c(C)c1 (centres unmarked) [Example 45, N-benzyl-4-methoxy-2,6-dimethyl-N-(2-(2-(1-methyl-3,4-dihydropyrrolo[1,2-a]pyrazin-2(1H)-yl)-2-oxoethoxy)ethyl)benzenesulfonamide] | 83% | 99% |
| COc1cc(C)c(S(=O)(=O)N(C)CCOCC(=O)N2CCn3cccc3C2c2ccc(C)c(C)c2)c(C)c1 (centres unmarked) [Example 58, N-(2-(2-(1-(3,4-dimethylphenyl)-3,4-dihydropyrrolo[1,2-a]pyrazin-2(1H)-yl)-2-oxoethoxy)ethyl)-4-methoxy-N,2,6-trimethylbenzenesulfonamide] | 102% | 97% |
| COc1cc(C)c(S(=O)(=O)N(C)CCOCC(=O)N2CCn3cccc3C2c2ccc(Cl)nc2)c(C)c1 (centres unmarked) [Example 55, N-(2-(2-(1-(6-chloropyridin-3-yl)-3,4-dihydropyrrolo-[1,2-a]pyrazin-2(1H)-yl)-2-oxoethoxy)ethyl)-4-methoxy-N,2,6-trimethylbenzenesulfonamide] | 100% | 99% |
| Cc1cc(C)c(S(=O)(=O)N(C)CCOCC(=O)N2CCn3cccc3C2c2ccccc2)c(C)c1 (centres unmarked) [Example 70, N,2,4,6-tetramethyl-N-(2-(2-oxo-2-(1-phenyl-3,4-dihydropyrrolo[1,2-a]pyrazin-2(1H)-yl)ethoxy)ethyl)benzenesulfonamide] | 101% | 99% |
| COc1cc(C)c(S(=O)(=O)N(CCOCC(=O)N2CCn3cccc3C2c2ccc(C(C)(C)C)cc2)Cc2ccccc2)c(C)c1 (centres unmarked) [Example 51, N-benzyl-N-(2-(2-(1-(4-tert-butylphenyl)-3,4-dihydropyrrolo[1,2-a]pyrazin-2(1H)-yl)-2-oxoethoxy)ethyl)-4-methoxy-2,6-dimethylbenzenesulfonamide] | 58% | 85% |

Now from value to molecule:

| inhibition at 10 µM [1] | inhibition at 10 µM [2] | SMILES |
| --- | --- | --- |
| 100% | 99% | COc1cc(C)c(S(=O)(=O)N(C)CCOCC(=O)N2CCn3c(ccc3-c3cccnc3)C2)c(C)c1 [Example 166, 4-Methoxy-N,2,6-trimethyl-N-(2-(2-oxo-2-(6-(pyridin-3-yl)-3,4-dihydropyrrolo[1,2-a]pyrazin-2(1H)-yl)ethoxy)ethyl)benzenesulfonamide] |
| 104% | 102% | COc1cc(C)c(S(=O)(=O)N(CCOCC(=O)N2CCn3c(CN(C)C)ccc3C2c2cccs2)Cc2ccccc2)c(C)c1 (centres unmarked) [Example 130, N-benzyl-N-(2-(2-(6-((dimethylamino)methyl)-1-(thiophen-2-yl)-3,4-dihydropyrrolo[1,2-a]pyrazin-2(1H)-yl)-2-oxoethoxy)ethyl)-4-methoxy-2,6-dimethyl-benzenesulfonamide] |
| 80% | 42% | CCC1c2cccn2CCN1C(=O)COCCN(C)S(=O)(=O)c1cc(C)c(OC)c(C)c1C (centres unmarked) [Example 114, N-(2-(2-(1-ethyl-3,4-dihydropyrrolo[1,2-a]pyrazin-2(1H)-yl)-2-oxoethoxy)ethyl)-4-methoxy-N,2,3,5-tetramethylbenzenesulfonamide] |
| 58% | 96% | COc1cc(C)c(S(=O)(=O)N(CCOCC(=O)N2CCn3cccc3C2C(C)C)Cc2ccccc2)c(C)c1C (centres unmarked) [Example 124, N-benzyl-N-(2-(2-(1-isopropyl-3,4-dihydropyrrolo[1,2-a]pyrazin-2(1H)-yl)-2-oxoethoxy)ethyl)-4-methoxy-2,3,6-trimethylbenzenesulfonamide] |
| 100% | 100% | COc1c(C)cc(S(=O)(=O)N(C)CCOCC(=O)N2CCn3c(CN(C)C)ccc3C2c2ccccc2)c(C)c1C (centres unmarked) [Example 105, N-(2-(2-(6-((dimethylamino)methyl)-1-phenyl-3,4-dihydropyrrolo[1,2-a]pyrazin-2(1H)-yl)-2-oxoethoxy)ethyl)-4-methoxy-N,2,3,5-tetramethylbenzene-sulfonamide] |
| 104% | 104% | Cc1cc(C)c(S(=O)(=O)N(C)CCOCC(=O)N2CCn3c(CN(C)C)ccc3C2c2cccs2)c(C)c1 (centres unmarked) [Example 144, N-(2-(2-(6-((dimethylamino)methyl)-1-(thiophen-2-yl)-3,4-dihydropyrrolo[1,2-a]pyrazin-2(1H)-yl)-2-oxoethoxy)ethyl)-N,2,4,6-tetramethylbenzenesulfonamide] |
| 100% | 99% | COc1cc(C)c(S(=O)(=O)N(C)CCOCC(=O)N2CCn3c(Cc4ccncc4)ccc3C2)c(C)c1 [Example 165, 4-Methoxy-N,2,6-trimethyl-N-(2-(2-oxo-2-(6-(pyridin-4-ylmethyl)-3,4-dihydropyrrolo[1,2-a]pyrazin-2(1H)-yl)ethoxy)ethyl)benzenesulfonamide] |
| 57% | 98% | CCC1c2cccn2CCN1C(=O)C[C@@H](NS(=O)(=O)c1ccc2ccccc2c1)c1ccccc1 (stereo partly drawn) [Example 162, N-((1R)-3-(1-Ethyl-3,4-dihydropyrrolo[1,2-a]pyrazin-2(1H)-yl)-3-oxo-1-phenylpropyl)naphthalene-2-sulfonamide] |
| 99% | 100% | COc1cc(C)c(S(=O)(=O)N(C)CCOCC(=O)N2CCn3cc(CCc4ccncc4)nc3C2)c(C)c1 [Example 178, 4-Methoxy-N,2,6-trimethyl-N-(2-(2-oxo-2-(2-(2-(pyridin-4-yl)ethyl)-5,6-dihydroimidazo[1,2-a]pyrazin-7(8H)-yl)ethoxy)ethyl)benzenesulfonamide] |
| 82% | 88% | COc1cc(C)c(S(=O)(=O)N(CCOCC(=O)N2CCn3c(CN4CCOCC4)ccc3C2c2ccccc2)Cc2ccccc2)c(C)c1C (centres unmarked) [Example 117, N-benzyl-4-methoxy-2,3,6-trimethyl-N-(2-(2-(6-(morpholinomethyl)-1-phenyl-3,4-dihydropyrrolo[1,2-a]pyrazin-2(1H)-yl)-2-oxoethoxy)ethyl)benzene-sulfonamide] |
